# Measurements published in ChEMBL document CHEMBL1201862, “PubChem BioAssay data set” (2004).
#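 Dose response: 5 concentrations. Exposure: 48 h. Format: 96-well plates. Endpoint: linear interpolation; highest concentration if not reached. The concentration for 50% growth inhibition is given as GI50.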 Calls of active or inactive are those of the source. No stated cut-off is given here; in the data, active = GI50 up to about 1.1 µM and inactive = higher.
# Test system: T47D
# Assay: NCI tumour cell line growth inhibition, 48 h
row,SMILES,GI50
1,CCCN1C(=O)CN(S(=O)(=O)c2ccc(Cl)cc2)C1=O,> 100 µM (inactive)
2,COc1cc2cc(C(=O)N3CC(COS(C)(=O)=O)c4ccc(O)cc43)[nH]c2c(OC)c1OC (stereo not drawn),0.000552 µM (active)
3,COC(=O)c1oc([N+](=O)[O-])c(Cl)c1Cl,4.76 µM (inactive)
4,S=C1CC(c2ccc(Cl)cc2)Sc2ccccc2N1 (stereo not drawn),40.4 µM (inactive)
5,CCOC(=O)CON=c1c2ccccc2ccc2ccccc12,> 100 µM (inactive)
6,CCOC(=O)CCC(NC(=O)c1ccc(OCc2nc3cc(C(F)(F)F)ccc3nc2-c2ccccc2)cc1)C(=O)OCC (stereo not drawn),20.4 µM (inactive)
7,CC12CCC3c4cc(Br)c(O)c(Br)c4CCC3C1CCC2O (stereo not drawn),26.2 µM (inactive)
8,COC(=O)C(=O)C(C(=O)C(=O)Nc1ccccc1C(N)=O)c1nc2ccc(Cl)cc2nc1O (stereo not drawn),> 100 µM (inactive)
9,Cn1c(N/N=C/c2ccc(Cl)cc2)nc(-c2ccc(Cl)cc2)c(C#N)c1=O,> 100 µM (inactive)
10,NC(=O)C(=CN1CC(=O)NC1=S)C(N)=O,> 100 µM (inactive)
11,N=C(N)NS(=O)(=O)c1ccc(NC(=O)c2cccc3c(NNc4ccc(C(=O)O)cc4)c4ccccc4nc23)cc1,39.6 µM (inactive)
12,Nn1c(-c2ccccc2)n[nH]c1=O,> 100 µM (inactive)
13,CCCCCCCCCCCCCCCCP(=O)(O)OCC(N)C(=O)O (stereo not drawn),> 100 µM (inactive)
14,CCCSc1ccc2[nH]c(N3C(=O)/C(=C/c4ccc(O)c(OC)c4)N=C3c3ccccc3)cc2c1,22.3 µM (inactive)
15,CC1CN(CCO)CC(C)O1 (stereo not drawn),> 100 µM (inactive)
16,CSc1c(C(=O)Nc2ccc(Cl)cc2)c(N)nn1-c1ccccc1,> 100 µM (inactive)
17,COC(=O)C(=O)C(C(=O)OC)C(=O)C(=O)Nc1c(Cl)cc([N+](=O)[O-])cc1Cl (stereo not drawn),> 100 µM (inactive)
18,CCOC(=O)CCCn1cc(C(=O)OC)nn1,> 100 µM (inactive)
19,C(/c1ccco1)=c1/nc(-c2ccccc2)n2c1nc1ccccc12,1.08 µM (active)

row,SMILES,GI50
1,CCCCCc1c2nc(c(CCCCC)c3ccc([nH]3)c(CCCCC)c3nc(c(CCCCC)c4ccc1[nH]4)C=C3)C=C2,> 100 µM (inactive)
2,COc1cccc2c1OC1(C=C2)Oc2ccccc2C(=O)N1C (stereo not drawn),31.9 µM (inactive)
3,O=C(O)c1nc2cc(C(F)(F)F)ccc2nc1Nc1ccc(F)cc1,20.2 µM (inactive)
4,OCCOCn1cc(Cn2ncc3c(SCc4ccccc4)ncnc32)nn1,27.5 µM (inactive)
5,CC12CCC(C1)C(C)(C)C2OC(=O)c1ccccc1N (stereo not drawn),14.9 µM (inactive)
6,O=S1(=O)CCN(Cc2ccccc2)/C1=N\S(=O)(=O)c1ccc(Cl)cc1,22.2 µM (inactive)
7,[N-]=[N+]=Nc1c([N+](=O)[O-])c(=O)n2c3c(cccc13)CCC2,5.42 µM (inactive)
8,C/C(=C1/N=C(c2ccccc2)OC1=O)c1cccs1,> 100 µM (inactive)
9,Cc1c2oc(=O)c(C#N)cc2c2ccccn12,> 100 µM (inactive)
10,CC1(C)OCC(C2OC(C)(C)OC2[C@H]2O[C@@]3(O)[C@H]4[C@H](C=CC[C@@H]42)[C@@H](OCc2ccccc2)[C@H](OCc2ccccc2)[C@H]3OCc2ccccc2)O1 (stereo partly drawn),34.2 µM (inactive)
11,COC(=O)C(=O)C(C(=O)C(=O)Nc1nnc(S)[nH]1)c1nc2ccc([N+](=O)[O-])cc2nc1O (stereo not drawn),> 100 µM (inactive)
12,CC1=CC(=O)CC(C)(C)C1/C=C/C(C)=C/C=C/C(C)=C/C=C/C=C(C)/C=C/C=C(C)/C=C/C1=C(C)CC(O)CC1(C)C (stereo not drawn),30.9 µM (inactive)
13,O=c1c2cc(I)ccc2nc(SCc2n[nH]c(=S)o2)n1Cc1ccccc1,14.8 µM (inactive)
14,CCCc1nc2c(n1CC)C(=O)c1ccccc1C2=O,28.5 µM (inactive)
15,O=C(Nn1c(-c2ccccc2)nc2ccccc2c1=O)c1ccc(Cl)cc1,85.5 µM (inactive)
16,CC(C)(Cl)C(Br)CCC(Br)(CCl)C(Cl)CBr (stereo not drawn),> 10 µM (inactive)
17,O=C(/C=C/C=C/c1ccccc1)c1ccccc1,18.4 µM (inactive)
18,CC1=C[C@H](C[C@]2(C)c3c(c4c(C)cccc4oc3=O)O[C@@H]2C)OC1=O,50.8 µM (inactive)
19,O=C1Cc2c([nH]c3c(Br)cccc23)-c2ccccc2N1,> 100 µM (inactive)
